According to patent publication US4011390A, “Semi-synthetic aminocyclitol aminoglycoside antibiotics and methods for the preparation thereof” (Schering-Plough Corporation, priority 1974, dated 1977):

Key:
Experiment in all cases: Activity against resistant strains
Type in all cases: cell-based
Pseudomonas aeruginosa = details: gentamicin and sisomicin resistant strains
Excerpt: (§1) In many instances, bacterial resistance is related to the organism's ability to inactivate the antibacterial agent via enzymatic (biochemical) means. Some species inactivate aminoglycosides antibiotics by acetylating the antibacterial agent, others by phosphorylation and still others by adenylylating. Some strains have several different inactivating capabilities. Further, the inactivation reactions occur at a specific site or sites on the antibacterial agent. We have shown by the compounds of this invention that alteration of sites on the antibiotic molecule not directly involved in inactivation processes can nevertheless frustrate these inactivation processes. […] The tables illustrate that the mutamicins include compounds which are active against strains having different mechanisms of inactivation of gentamicin, sisomicin, kanamycin, neomycin and torbramycin. For example, some mutamicins are effective against strains of E. coli which contain adenylylating R factors such as E. coli W677/R55 and LA290/R55. These E. coli strains are resistant to gentamicin, sisomicin and torbramycin. Some are also effective against gentamicin, tobramycin and kanamycin resistant adenylylating strains of Klebsiella pneumoniae and also kanamycin, neomycin phosphorylating strains of E. coli and Klebsiella pneumoniae. Further, some mutamicins are effective against gentamicin and sisomicin resistant strains of Pseudomonas aeruginosa and gentamicin, sisomicin, tobramycin resistant Providence which is sensitive to kanamycin. Thus, the mutamicins afford a means for combatting strains of bacteria which have already developed a variety of mechanisms for resisting the action of many of the antibiotics known in the art or currently in commercial use.

E. coli = E. coli W677/R55 and LA290/R55
Excerpt: as §1

Providence = details: gentamicin, sisomicin, tobramycin resistant Providence
Excerpt: as §1

CN[C@@H]1[C@@H](O)[C@@H](O[C@@H]2[C@@H](O)[C@H](O[C@H]3OC(CN)=CC[C@H]3N)[C@@H](N)C[C@H]2N)OC[C@]1(C)O [Sisomicin, O-2,6-Diamino-2,3,4,6-tetradeoxy-α-D-glycero-hex-4-eno-pryanosyl(1→4)-O-[3-deoxy-4-C-methyl-3-(methylamino)-B-L-arabinopyranosyl(1→6)] -2-deoxy-D-streptamine, reference compound]
resistant: activity against resistant strains (Pseudomonas aeruginosa) | activity against strains containing adenylylating R factors (E. coli) | activity against resistant Providence (Providence)
